According to publication PMC10251509, “Ultrafast Fragment Screening Using Photo-Hyperpolarized (CIDNP) NMR” (Journal of the American Chemical Society, 2023):

Tests used:
[1] = target: T1, PIN1 (Homo sapiens, UniProt Q13526); test: T1ρ relaxation NMR experiment, PIN1; type: binding
T1 construct: polyhistidine (N); made in house; host or cells: Escherichia coli BL21 (DE3)
Protocol: For comparison, the signal decay during a T1ρ NMR experiment was measured at the same sample conditions as the photo-CIDNP experiments (Table 2). The signal decay between two T1ρ relaxation delays of 10 and 400 ms is measured in the absence and presence of the PIN1 protein. The increase in signal decay is calculated as the ratio of the integral’s ratio, i.e., (Γ400ms/Γ10ms)PL/(Γ400ms/Γ10ms)L. The most affine binders, compounds 1 and 13, show a significant reduction of the T1ρ decay ratio upon PIN1 addition, witnessing an increase in the relaxation decay. […] The signal-to-noise of the T1ρ spectra were ca. 300 for a number of transients of 512, corresponding to a measurement time of 25 min, while the photo-CIDNP experiments provided a signal-to-noise of ca. 100 for a single-scan experiment corresponding to a two second’s experiment. […] The signal-to-noise of the STD NMR experiments[1] was only 25 and 19 for compounds 1 and 13, respectively, after 50 min measurement corresponding to a 512 transient’s experiment.
For the control binding experiments using ligand-induced chemical shift perturbation analysis, standard [^15N, ^1H]-HSQC spectra were measured. The detailed conditions for the 2D experiments acquired at 600 MHz ^1H NMR frequency were the 100 μM ^15N-labeled PDZ2 domain in the absence and presence of equimolar peptide in PDZ2 buffer and at a temperature of 298 K and 50 μM ^15N-labeled PIN1 in the absence and presence of 200 μM ligands in PIN1 buffer and at a temperature of 298 K, respectively. Typically, 220 (t1,max (^15N) = 47.6 ms) × 1024 (t2,max (^1H) = 60.8 ms) complex points, an interscan delay of 0.8 s, and 12 scans per increment were measured. The data was zero–filled to 2048 points in the direct proton dimension and to 256 points in the ^15N–dimension. Processing was done with a shifted cosine window function for both dimensions. […] The spinlock times were set at 10 and 400 ms. The STD experiments were measured at 298 K with 16,384 (tmax (^1H) = 974 ms) complex points and 512 scans per increment. The on-resonance saturation pulse was set at 0 ppm, and the off-resonance saturation pulse was set to 40 ppm with a saturation time of 1 s.

[2] = target: T1, PIN1; test: automated flow-through photo-CIDNP 1D 1H NMR screening against PIN1; type: binding; conditions: flow cell, 50 μM compound, 20 μM PIN1, 1.5 s irradiation
Text: While several other hyperpolarization methods yield higher SNE and have been established for ligand binding detection, their implementation into a highly automated system remains challenging.[43],[44] Photo-CIDNP hyperpolarization presents the advantage of being generated in situ, at room temperature, in solution, simply by shining light on the sample. To illustrate the agility of the photo-CIDNP ligand screening approach, we designed a flow-through setup compatible with a cryoprobe (Figure 7C). The setup consists of a pump, an autosampler, a valve, and a 3D printed flow cell (Figure 7B,C), which comprises an optic fiber for light irradiation coming from a 1.6 W diode laser emitting at 450 nm from Thorlabs. […] (iv) While the flow is stopped, a photo-CIDNP ^1H 1D NMR spectrum is recorded, as described above. […]
Figure 7 Automated screening of PIN1 with Nmhare1.0 library using photo-CIDNP 1D ^1H NMR. […] The photo-CIDNP NMR experiment is then recorded with the pulse program triggering light irradiation, and subsequently performing the NMR experiment acquisition, the NMR experiment can comprehend different numbers of transients (NS) and indirect time dimension points (TD) that will increase the measurement time accordingly; finally, the sample is washed by restoring the flow in the fluidic connection. […]

T1 sequence (Q13526 whole entry): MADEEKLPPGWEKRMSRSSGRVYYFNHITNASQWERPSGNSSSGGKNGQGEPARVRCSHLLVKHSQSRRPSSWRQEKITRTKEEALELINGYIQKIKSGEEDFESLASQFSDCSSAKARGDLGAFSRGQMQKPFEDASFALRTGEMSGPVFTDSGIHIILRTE

- T1ρ decay ratio ([1]; 200 μM ligand, ±20 μM protein, (Γ400ms/Γ10ms)PL/(Γ400ms/Γ10ms)L): 0.45
- T1ρ decay ratio ([1]; low concentration, same sample conditions: 20 μM ligand (compound 1: 5 μM), ±2 μM PIN1): 0.76
- photo-CIDNP signal in presence vs absence of PIN1 [2]: signal reduction
Structure (SMILES): Cc1cccc(-c2nc(C)c(C(=O)O)[nH]2)c1 [Compound 13, reference compound]
